*: point of attachment. NHNH2 = NN*
Key:
Format in all cases: cell-based
[1] = test system: Hek293 cells expressing EGFP; assay: EGFP-targeting siRNA delivery (GFP silencing vs siMOCK), Hek293
Method: To generate an EGFP expressing HeLa cell line, HeLa cells were transfected with EGFP pDNA (pEGFP-C1, Clontech) and stable transfectants were selected with 400 μg/mL of G-418 (Millipore). Green clones were selected by epifluorescence microscopy and tested for EGFP expression stability through several passages. […] All other EGFP-expressing cell lines were obtained in a similar way from parent non-EGFP-expressing cell lines.
Cells expressing EGFP were seeded in a 96 well plate the day before the experiment at a concentration of 50,000 cell/mL (100 μL/w) in DMEM+10% FBS+1% Gln-Abt. For robotic library screening, the delivery of an EGFP-targeting siRNA (EGFP: enhanced green fluorescent protein, Ambion® Silencer® GFP Positive Control siRNA (siGFP) (AM4626)) in six different cell lines expressing EGFP was performed. […] The mixture was shaken for 30 min at room temperature (rt) before the addition to the cells. The cell medium was aspirated, and cells were washed twice with PBS. Finally, 50 μL of the solution of siRNA/amphiphile complexes were added to the cells and incubated for 4 h. After transfection, the medium was replaced by 100 μL of fresh DMEM supplemented with 10% FBS. The fluorescence knockdown was quantified after 72 h in a plate reader, by comparison with cells transfected with a non-targeting siRNA control (siMOCK, Silencer™ Negative Control No. 1 siRNA (siMOCK) (AM4611)). EGFP knockdown was compared with Lipofectamine® RNAiMAX silencing efficiency (30-60% depending on cell line, defined with a numeric value in the below tables). All experiments were done in triplicate.
(§1) Tables 1-7: RLuc (pDNA) or EGFP (mRNA) expression levels were normalized to Lipofectamine reagents (value=1) and expressed as fold-times signal increase. In the case of siRNA, the siRNA treated cells fluorescence was compared with siMOCK control fluorescence, while Cas9-RNP mediated knockout was measured against the fluorescence of untreated cells. In both siRNA and Cas9-RNP, values are expressed as % fluorescence reduction. Amphiphile concentration was 5 μM in all cases. All experiments were performed in triplicate.
Tables 20-25 show the mean (triplicates) percentage of GFP-silencing, accounted by fluorescence intensity decrease relative to a non-targeting siRNA (siMOCK) control, measured after the transfection of siRNA by different amphiphiles at different concentrations in a variety of cell lines. Background values, accounted by untreated control cells, were subtracted for processing.

Hek293 cells = assay: EGFP mRNA delivery, robotic library screening, Hek293
Method: Cells were seeded in a 96 well plate the day before the experiment at a concentration of 50,000 cell/mL (100 μL/w) in DMEM+10% FBS+1% Gln-Abt. For robotic library screening, the delivery of EGFP-mRNA (from TriLink, fully substituted with 5-methoxyuridine, capped and polyadenylated; TriLink, CleanCap® EGFP mRNA (5moU), ref. L-7201) in six different cell lines was performed. Amphiphilic molecule stock solutions were prepared in DMSO as described above and diluted in DMEM to afford a range of concentrations. The solutions of EGFP-mRNA/amphiphilic molecule complexes were freshly prepared prior to the transfection experiments. 35 μL of the corresponding amphiphile were added to 10 μL of a solution of EGFP-mRNA at 10 ng/μL in DMEM. The mixture was shaken for 30 min at room temperature before the addition to the cells. The cell medium was aspirated, and cells were washed with PBS twice. Cells were covered with 39 μL of DMEM and 11 μL of the complex's solution were added to the cells and incubated for 4 h (final concentration of peptide=2.5, 5 and 10 μM; final concentration of EGFP-mRNA=25 ng/well). After the incubation, the medium was replaced by 100 μL of fresh DMEM supplemented with 10% FBS. The total EGFP fluorescence was quantified after 72 h in a well plate reader. Amphiphile transfection efficiency was compared and normalized to Lipofectamine® MessengerMax efficiency (value of 1 in Tables 1-5 and 7; double underlined numbers). All experiments were done in triplicate.
as §1
Tables 14-19 show the mean (triplicates) fluorescence intensity measured after the transfection of EGFP mRNA by different amphiphiles at different concentrations in a variety of cell lines. Background fluorescence values, accounted by untreated control cells, were subtracted for processing.

A549 cells = assay: RLuc pDNA delivery, robotic library screening, A549
Summary of the method: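 A549 cells in DMEM+10% FBS were washed twice with PBS and exposed for 4 h to amphiphile/RLuc pDNA complexes prepared from DMSO stocks diluted in DMEM. After medium replacement and 72 hours, cells in HBSS were incubated at 37° C. for 30 minutes, basal then total luminescence measured after 5 μM coelenterazine h; background from untransfected cells was subtracted.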

| Substance | percentage of GFP-silencing relative to siMOCK ([1]; Dodecanal, 5 μM) | percentage of GFP-silencing relative to siMOCK ([1]; Dodecanal, 10 μM) | percentage of GFP-silencing relative to siMOCK ([1]; Dodecanal, 15 μM) | percentage of GFP-silencing relative to siMOCK ([1]; Myristoleyl, 15 μM) | percentage of GFP-silencing relative to siMOCK ([1]; Oleyl, 10 μM) | percentage of GFP-silencing relative to siMOCK ([1]; Petroselinyl, 5 μM) | percentage of GFP-silencing relative to siMOCK ([1]; Petroselinyl, 10 μM) | percentage of GFP-silencing relative to siMOCK ([1]; Petroselinyl, 15 μM) | mean fluorescence intensity (EGFP mRNA) (Hek293 cells; Myristoleyl, 2.5 μM) | mean fluorescence intensity (EGFP mRNA) (Hek293 cells; Oleyl, 2.5 μM) | mean fluorescence intensity (EGFP mRNA) (Hek293 cells; Oleyl, 5 μM) | mean fluorescence intensity (EGFP mRNA) (Hek293 cells; Oleyl, 10 μM) | mean fluorescence intensity (EGFP mRNA) (Hek293 cells; Petroselinyl, 2.5 μM) | mean fluorescence intensity (EGFP mRNA) (Hek293 cells; Petroselinyl, 5 μM) | mean fluorescence intensity (EGFP mRNA) (Hek293 cells; Petroselinyl, 10 μM) | mean luminescent intensity (RLuc pDNA) (A549 cells; Dodecanal, 5 μM) | mean luminescent intensity (RLuc pDNA) (A549 cells; Palmitoleyl, 15 μM) | mean luminescent intensity (RLuc pDNA) (A549 cells; Petroselinyl, 15 μM) | mean fluorescence intensity (EGFP mRNA) (Hek293 cells; Dodecanal, 10 μM) | mean fluorescence intensity (EGFP mRNA) (Hek293 cells; Myristoleyl, 5 μM) | other results |
| --- | --- | --- | --- | --- | --- | --- | --- | --- | --- | --- | --- | --- | --- | --- | --- | --- | --- | --- | --- | --- | --- |
| Ac-RHLK*RLK*RRLK*RL-NH2 (Ac-RHLKRLKRRLKRL-NH2; not fully specified (residues 4, 7, 11); printed as Ac-RHLK*RLK*RRLK*RL-NH2; also: linker on K* not given here) [13(Arg-His)] | 24% | 39% | 44% | 25% | 39% | 30% | 5% | 18% | 2326 | 5005 | 1571 | 1231 | 1436 | 638 | 372 | 6594 RLU | 3763 RLU | 9721 RLU | – | – | percentage of GFP-silencing relative to siMOCK ([1]; Myristoleyl, 10 μM): 48%; percentage of GFP-silencing relative to siMOCK ([1]; Oleyl, 15 μM): 47%; mean fluorescence intensity (EGFP mRNA) (Hek293 cells; Palmitoleyl, 10 μM): 777; mean luminescent intensity (RLuc pDNA) (A549 cells; Myristoleyl, 5 μM): 8162 RLU; mean luminescent intensity (RLuc pDNA) (A549 cells; Oleyl, 5 μM): 14340 RLU; mean luminescent intensity (RLuc pDNA) (A549 cells; Palmitoleyl, 5 μM): 8561 RLU |
| Ac-RK*LRK*K*L-NH2 (Ac-RK(NHNH2)LRK(NHNH2)K(NHNH2)L-NH2; not fully specified; printed as Ac-RK*LRK*K*L-NH2; also: K*2,K*5,K*6: native or modified lysine (ε-amide to a linker)) [Peptide 7.3] | – | – | – | – | – | – | – | 3% | 11081 | 3452 | 1414 | 805 | 9200 | 8731 | 476 | 483 RLU | – | – | 2056 | 2907 | percentage of GFP-silencing relative to siMOCK ([1]; Myristoleyl, 5 μM): 29%; percentage of GFP-silencing relative to siMOCK ([1]; Oleyl, 5 μM): 26%; percentage of GFP-silencing relative to siMOCK ([1]; Palmitoleyl, 15 μM): 19%; mean fluorescence intensity (EGFP mRNA) (Hek293 cells; Dodecanal, 2.5 μM): 9114; mean fluorescence intensity (EGFP mRNA) (Hek293 cells; Dodecanal, 5 μM): 17096; mean fluorescence intensity (EGFP mRNA) (Hek293 cells; Myristoleyl, 10 μM): 982; mean fluorescence intensity (EGFP mRNA) (Hek293 cells; Palmitoleyl, 2.5 μM): 4120; mean luminescent intensity (RLuc pDNA) (A549 cells; Dodecanal, 15 μM): 777 RLU; mean luminescent intensity (RLuc pDNA) (A549 cells; Palmitoleyl, 10 μM): 3679 RLU; mean luminescent intensity (RLuc pDNA) (A549 cells; Petroselinyl, 5 μM): 4314 RLU |
| Ac-RRLK*RLK*RRLK*RL-NH2 [Peptide 13.3] | 52% | 44% | 48% | 25% | 2% | 18% | 0% | 20% | 1316 | 1384 | 853 | – | 768 | 1046 | 964 | – | 2262 RLU | 2205 RLU | 695 | 1229 | percentage of GFP-silencing relative to siMOCK ([1]; Palmitoleyl, 5 μM): 42%; mean fluorescence intensity (EGFP mRNA) (Hek293 cells; Myristoleyl, 10 μM): 889; mean luminescent intensity (RLuc pDNA) (A549 cells; Dodecanal, 10 μM): 964 RLU; mean luminescent intensity (RLuc pDNA) (A549 cells; Dodecanal, 15 μM): 1174 RLU; mean luminescent intensity (RLuc pDNA) (A549 cells; Myristoleyl, 10 μM): 2097 RLU; mean luminescent intensity (RLuc pDNA) (A549 cells; Oleyl, 10 μM): 1248 RLU; mean luminescent intensity (RLuc pDNA) (A549 cells; Oleyl, 15 μM): 1919 RLU; mean luminescent intensity (RLuc pDNA) (A549 cells; Palmitoleyl, 10 μM): 2647 RLU |

— US20250304623A1, “PEPTIDES FOR INTRACELLULAR DELIVERY” (UNIVERSIDADE DE SANTIAGO DE COMPOSTELA, priority 2022, published 2025)
